In patent publication US8138392B2, “Disease resistant plants” (The Samuel Roberts Noble Foundation, Inc., priority 2008, dated 2012):
Entries after “also recorded” stand apart in the source; their conditions may differ.

Tested on: P. omnivora
Assay: in vitro fungal growth inhibition assay
Format: cell-based, Phymatotrichopsis omnivora

O=c1cc(-c2ccc(O)cc2)oc2cc(O)ccc12 [7,4-dihydroxyflavone]
fungal growth inhibition in in vitro assays (at 0.1 mM): inhibited fungal growth | inhibitory activity towards P. omnivora in in vitro assays (no concentration stated): very high inhibitory activity; also recorded: inhibitory to P. omnivora
